Laboratory results as given in US20150023877A1, “METHODS OF PARKINSONS DISEASE DIAGNOSIS AND MONITORING TREATMENT” (The Board of Trustees of the Leland Stanford Junior …, priority 2013, published 2015).
Where “and” joins values, the source holds several entries; their conditions need not be identical. Equal entries are not always repeated. Where two headings read alike, the source gives them in different places.

Columns and labels:
[1] = test system: implantation site (striatum); details: cited from earlier work
pRPE cells [2] = assay: Melanin quantification analysis in pRPE cells; assay type: cell-based, porcine; details: 2 mM L-tyrosine pre-treatment; from 14.34±0.48 untreated
Method: In vitro measurement of melanin content was performed for pRPE and ARPE-19 cells in parallel with the ^18F-P3BZA cell uptake assay according to methods reported previously with slight modifications^35. The cells were harvested after pretreatment with or without 2 mM L-tyrosine for 24 h and washed with PBS, then they were incubated overnight in 500 μL of 1 N NaOH at room temperature. The solution was pipetted repeatedly to homogenize the extracts. The concentration of total protein was determined using a microBCA protein assay kit (Pierce Biotechnology) and then the concentration of samples was adjusted to 0.4 μg/μL. Extracts (100 μL) were added into 96-well plates in triplicate. The relative melanin content of samples was determined by measuring their absorbance at 405 nm using a plate reader (TECAN, Research Triangle Park, N.C.). Results were expressed as absorbance of 405 nm per mg protein (A 405 nm/mg protein).

MCF-7-TYR = details: cited from earlier work
[3] = test system: gelatin microcarrier-bound pRPE cells (pRPE-GMs); assay: Static PET/CT of intrastriatal implanted pRPE-GMs, 2 days after implantation; assay type: in vivo, rat
Method: (§1) Female Wistar rats (Charles Rivers Laboratory, Wilmington, Mass., USA) weighing 176-200 g were used in this study. All animal work was conducted in accordance with the Administrative Panel on Laboratory Animal Care at Stanford University. The implantation procedure was performed following the surgical procedures described in a previous report^36. Animals were anesthetized using isofluorane and were implanted at left striatum with RPE-GMs using the following (flat-skull) coordinates: anterior posterior (AP) −0.4; medial lateral (ML) ±3.5; dorsal ventral (DV) −5.0. The control GMs-alone were implanted on the contralateral side of the striatum and performed using the same procedure. Before the implantation procedure, solutions contained RPE cells (melanotic pRPE or amelanotic ARPE-19, 12,000˜15,000 cells in 10 μL) were drawn into a sterile 50 μL Hamilton syringe (Hamilton Company, Reno, Nev.).
(§2) Small animal PET/CT imaging was performed on a Siemens Inveon small-animal multimodality PET/CT system (Preclinical Solutions; Siemens Healthcare Molecular Imaging, Knoxville, Tenn.). For each rat, ^18F-P3BZA (7.4 MBq, 200 μCi) was administrated through tail vein. […]

[4] = test system: gelatin microcarrier-bound pRPE cells; assay: Ex vivo autoradiography of rat brain sections; assay type: in vivo; details: after static PET/CT
From the text: The sacrificed rat brains were removed and embedded in optimum cutting temperature (O.C.T.) compound (Tissue-Tek, Sakura, USA). Subsequently, thick axial blocks (12 μm) were cut using a cryostat microtome HM500 (Microm, HM 500 M, Heidelberg, Germany). The sections were mounted on microscope slides (Fisherbrand Superfrost Plus microscope slides, Fisherbrand Superfrost Plus Microscope Slides, Vernon Hills, Ill., USA). The representative coronal sections through the striatum (including visible injection sites) were used for autoradiography immediately or preserved in −80° C. for other postmortem analysis.
After static PET/CT imaging, frozen brain sections were prepared immediately for autoradiography. The sections were air-dried for 10 minute, and then exposed to a radioactivity sensitive storage phosphor screen (Perkin-Elmer, USA) for 24 h at 4° C. The imaging plates were analyzed using a Typhoon 9410 variable mode imager (Amersham Biosciences, Salt Lake City, Utah, USA), and the image data were visualized and processed by Image J (image processing and analysis software in Java).

[5] = Dynamic PET imaging in normal rat brain; assay type: in vivo
Method: (§3) Small animal PET/CT imaging was performed on a Siemens Inveon small-animal multimodality PET/CT system (Preclinical Solutions; Siemens Healthcare Molecular Imaging, Knoxville, Tenn.). For each rat, ^18F-P3BZA (7.4 MBq, 200 μCi) was administrated through tail vein.
To assess the in vivo kinetics of ^18F-P3BZA in normal rat brain, dynamic PET imaging (10×1 minute, 10×2 minute, 2×5 minute, 3×10 minute; total of 25 frames) was initiated immediately after administration of the probe and terminated 70 minute later on normal rats (n=4).
CT scan (632 slices at 206 μm) was performed immediately after PET imaging for both photon attenuation correction and image co-registration with PET image data for anatomical information. PET Images were reconstructed with a 2-dimensional ordered-subsets expectation maximization algorithm (OSEM 2D). ROIs were drawn in bilateral striatum using the Inveon Research Workspace software. The average radioactivity concentration in the ROIs was obtained from the mean pixel values within the ROIs volume. […] The results were then divided by the injected dose to obtain an image ROI-derived % ID/g, and the TAC was then calculated and obtained.

B16F10 = details: cited from earlier work
pRPE cells [6] = assay: In vitro cell uptake of ^18F-P3BZA in pRPE cells; assay type: cell-based; details: for uptake of ^18F-P3BZA in pRPE cells: without L-tyrosine
Method: (§4) pRPE (generation 3, 5×10^5) or control ARPE-19 cells were plated in a 12-well plate pretreated with or without L-tyrosine (2 mM) for 24 h. They were incubated with 74 kBq (2 μCi)/well of ^18F-P3BZA at 37° C. for 15, 30, 60, and 120 minute. The cells were washed three times with chilled PBS and lysed with 500 μL of 0.1 M NaOH. The cell lysates were then collected and the radioactivity of the lysates was measured with a γ counter (Perkin-Elmer, MA, USA). The cell uptake was expressed as the percentage of total applied radioactivity. All experiments were performed with triplicate samples. Similarly, uptake of ^18F-P3BZA at 30 minute incubation was determined in pRPE cells at different passages (pRPE-P3, pRPE-P5 and pRPE-P8) and control ARPE19 cells, with or without L-tyrosine pretreatment.

[7] = test system: gelatin microcarrier-bound ARPE-19 cells (ARPE-19-GMs); assay: Static PET/CT of intrastriatal implanted ARPE-19-GMs, 2 days after implantation; assay type: in vivo, rat
Method: as §1, §2

ARPE-19 cells = assay: In vitro cell uptake of ^18F-P3BZA in control ARPE-19 cells; assay type: cell-based, human
Method: as §4

MCF-7 cells = details: cited from earlier work
pRPE-GMs = assay: Longitudinal PET/CT after implantation of pRPE-GMs; assay type: in vivo, rat
Method: as §3
To evaluate the potential of ^18F-P3BZA for monitoring the survival and function of RPE cells implanted, longitudinal PET/CT scans were acquired at day 2, 9 and 16 after cell implantation of pRPE-GMs in the left and GMs as control in right striatum in normal rats (n=12). PET/CT imaging started at 1 h after tail vein injection of ^18F-P3BZA Immediately after PET/CT scan at each time point (day 2, 9 and 16), four rats were sacrificed and the brain slices were prepared for immunohistochemistry and Fontana-Masson staining.

[8] = after implantation of the RPE cells
[9] = before implantation of the RPE cells

SMILES: CCN1CCC[C@H]1CNC(=O)c1c(O)c(Cl)cc(Cl)c1O[11CH3] (racemic) [^11C-raclopride]
- implantation site (striatum) to cortex uptake ratio [1, 8]: 2.44±0.67
- implantation site (striatum) to cortex uptake ratio [1, 9]: 2.41±0.74

SMILES: N[C@@H](Cc1ccc(O)cc1)C(=O)O [L-tyrosine]
- melanin content in pRPE cells (P3) (pRPE cells [2]): 21.34±1.73 A 405 per mg protein

SMILES: CCN(CC)CCNC(=O)c1ccc([18F])cn1 [^18F-P3BZA, N-(2-(diethylamino)ethyl)-^18F-5-fluoropicolinamide]
- cell uptake (MCF-7-TYR; 0.5 h incubation): 5.57±0.31%
- cell uptake (MCF-7-TYR; 1 h incubation): 7.14±0.18%
- pRPE-GMs to adjacent normal striatum uptake ratio [3]: 3.19±0.53
- pRPE-GMs to control gelatin microcarriers uptake ratio [3]: 3.05±0.57
- autoradiography signal of pRPE-GMs transplant site vs ARPE-19-GMs or GMs alone sites [4]: significantly higher
- uptake in rat brain ([5]; 2 min after injection (peak)): 7.61±0.30 % ID/g
- uptake in rat brain ([5]; 28 min after injection): 3.54±0.21 % ID/g
- uptake in rat brain ([5]; 60 min after injection): 1.04±0.37 % ID/g
- blood-brain barrier passage ([5]; PET images, normal rat): could rapidly cross the blood-brain barrier
- cell uptake (B16F10; 0.5 h incubation): 6.85±0.08%
- cell uptake (B16F10; 1 h incubation): 8.55±0.24%
- uptake of ^18F-P3BZA in L-tyrosine treated pRPE cells (pRPE cells [6]; 2 mM L-tyrosine pre-treatment, 30 minute incubation): 39.07±1.65%
- uptake of ^18F-P3BZA in pRPE cells (pRPE cells [6]; 60 minutes incubation): 9.09%±0.31 % of applied activity
- uptake of ^18F-P3BZA in pRPE cells (pRPE cells [6]; 120 minutes incubation): 8.61%±0.47 % of applied activity
- fold uptake in passage 3 pRPE cells vs control amelanotic ARPE-19 cells (pRPE cells [6]; in vitro): 9 fold
- increase in uptake in pRPE cells after tyrosine treatment vs nontreatment groups (pRPE cells [6]; multiple time points, FIG. 2A): three- to fourfold higher
- uptake of ^18F-P3BZA in pRPE cells (pRPE cells [6]; pRPE passage 3, 30 minutes incubation): 10.72±0.38 % of applied activity and 10.72%±0.38 % of applied activity and 10.71%±0.38 % of applied activity
- increase of uptake after tyrosine treatment (pRPE cells [6]; pRPE-P3): 48.8%
- decreasing rate of cell uptake per passage (pRPE cells [6]; pRPE-P3, P5, P8): −1.45 % of applied activity per passage
- increase of uptake after tyrosine treatment (pRPE cells [6]; pRPE-P5): 37.8%
- increase of uptake after tyrosine treatment (pRPE cells [6]; pRPE-P8): 31.9%
- uptake of ^18F-P3BZA in pRPE-P5 cells (pRPE cells [6]; passage 5, 30 minute incubation): 6.25%±0.59 % of applied activity
- uptake of ^18F-P3BZA in pRPE-P8 cells (pRPE cells [6]; passage 8, 30 minute incubation): 3.29%±0.15 % of applied activity
- ARPE-19-GMs to gelatin microcarriers uptake ratio [7]: 1.21±0.36
- uptake in control ARPE-19 cells at each time point (ARPE-19 cells; 15, 30, 60, 120 minutes): remained low
- uptake of ^18F-P3BZA in control ARPE-19 cells (ARPE-19 cells; 30 minute incubation): 1.31%±0.15 % of applied activity
- uptake in ARPE-19 cells before and after tyrosine treatment (ARPE-19 cells; with vs without L-tyrosine): no difference
- cell uptake (MCF-7 cells; 0.5 h incubation): 0.25±0.05%
- cell uptake (MCF-7 cells; 1 h incubation): 0.32±0.07%
- uptake in pRPE-GMs (pRPE-GMs; 2 days post-implantation): 3.39±0.18 % ID/g
- uptake in pRPE-GMs (pRPE-GMs; 9 days post-implantation): 2.49±0.41 % ID/g
- uptake in pRPE-GMs (pRPE-GMs; 16 days post-implantation): 1.20±0.13 % ID/g

SMILES: N[C@@H](Cc1cc(O)c(O)cc1[18F])C(=O)O [^18F-fluoro-L-DOPA]
- implantation site (striatum) to cortex uptake ratio [1, 8]: 1.48±0.07
- implantation site (striatum) to cortex uptake ratio [1, 9]: 1.35±0.10
